Laboratory results: patent US20150246024A1 (priority 2012, published 2015)
Converted amounts (≈) assume the structure as drawn. “And” between values parts separate entries of the source, which are not always exact repeats. Equal values may be shown once. “Also recorded” adds a separate entry of the source.

Experiments:
[1] = tested on: S. aureus RN4220; assay: Growth of S. aureus culture with sub-lethal compound (OD600); conditions: until control culture OD600 1.0
[2] = tested on: B. anthracis Sterne; assay: microbe, parasite or virus in culture; format: cell-based; conditions: 37° C., 18-22 hours, OD600
[3] = tested on: E. coli; format: cell-based
[4] = tested on: E. faecium TX0016; format: cell-based
[5] = biological target: extracellular S. aureus LtaS (eLtaS) (Staphylococcus aureus, UniProt Q2G093); format: binding; conditions: 200 μM compound in mobile phase
Sequence of extracellular S. aureus LtaS (eLtaS) (Q2G093 218-646): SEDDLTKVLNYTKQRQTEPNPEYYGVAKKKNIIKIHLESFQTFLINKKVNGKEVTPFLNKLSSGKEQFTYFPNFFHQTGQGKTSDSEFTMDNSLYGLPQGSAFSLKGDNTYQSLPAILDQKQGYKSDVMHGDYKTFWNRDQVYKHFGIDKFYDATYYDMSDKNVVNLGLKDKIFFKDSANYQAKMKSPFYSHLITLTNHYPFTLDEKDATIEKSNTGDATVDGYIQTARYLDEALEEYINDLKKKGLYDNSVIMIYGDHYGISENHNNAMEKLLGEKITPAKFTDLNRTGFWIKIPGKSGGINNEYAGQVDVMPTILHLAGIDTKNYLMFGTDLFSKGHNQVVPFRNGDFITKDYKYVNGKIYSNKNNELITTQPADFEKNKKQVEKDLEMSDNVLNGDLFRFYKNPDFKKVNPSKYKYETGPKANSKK

[6] = tested on: S. aureus RN4220 (MSSA); assay: microbe, parasite or virus in culture; format: cell-based; conditions: 37° C., 18-22 hours, OD600
[7] = tested on: S. aureus RN4220 colony isolates from gradient plates with 10-200 μM compound 1771; assay: Susceptibility of colony isolates from compound 1771 gradient plates; format: cell-based
[8] = tested on: E. faecalis V583; format: cell-based
[9] = tested on: C. difficile CD196; assay: Growth inhibition assay (MIC/IC50), 96-well; format: cell-based
[10] = tested on: LTA production in S. aureus; assay: Inhibition of LTA synthesis in S. aureus (immunoblot)
[11] = tested on: S. aureus RN4220; format: cell-based
[12] = biological target: Recombinant S. aureus LtaSSA expressed in E. coli (Staphylococcus aureus, UniProt Q2G093); format: cell-based
Sequence of Recombinant S. aureus LtaSSA expressed in E. coli (Q2G093 whole entry): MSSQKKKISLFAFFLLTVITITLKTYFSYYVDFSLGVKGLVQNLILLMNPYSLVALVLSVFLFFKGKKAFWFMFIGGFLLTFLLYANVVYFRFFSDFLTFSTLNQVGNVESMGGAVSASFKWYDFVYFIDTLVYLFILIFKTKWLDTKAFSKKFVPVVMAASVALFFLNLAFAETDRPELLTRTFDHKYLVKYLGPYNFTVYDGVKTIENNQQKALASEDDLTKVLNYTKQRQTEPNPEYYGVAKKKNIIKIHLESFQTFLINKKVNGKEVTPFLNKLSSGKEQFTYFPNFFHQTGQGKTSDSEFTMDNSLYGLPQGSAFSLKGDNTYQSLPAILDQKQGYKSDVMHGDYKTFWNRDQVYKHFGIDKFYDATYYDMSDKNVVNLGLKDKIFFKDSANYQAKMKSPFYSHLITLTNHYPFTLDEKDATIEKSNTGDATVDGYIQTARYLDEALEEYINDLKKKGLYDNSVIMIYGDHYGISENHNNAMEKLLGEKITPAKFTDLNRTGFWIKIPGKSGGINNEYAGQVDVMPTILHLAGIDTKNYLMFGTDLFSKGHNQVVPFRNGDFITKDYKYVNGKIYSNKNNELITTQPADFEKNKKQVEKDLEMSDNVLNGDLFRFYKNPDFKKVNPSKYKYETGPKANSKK

[13] = tested on: C. difficile JIR8094; assay: Growth inhibition assay (MIC/IC50), 96-well; format: cell-based; conditions: sigmoidal fit
[14] = tested on: E. faecium - VRE TX0016; assay: microbe, parasite or virus in culture; format: cell-based; conditions: 37° C., 18-22 hours, OD600
[15] = Half-life of compound in mice (blood, HPLC, mass spectrometry); format: in vivo; conditions: 32 mg/kg intraperitoneal
Description: The therapeutic impact of compound 1771 during infection was examined. First, we evaluated the half-life of compound 1771 in vivo. Animals received intraperitoneal injections with 32 mg/kg of compound. The blood of three animals was drawn 1, 6 and 12 hours following intraperitoneal injections and the compound was extracted with methanol and chloroform, separated by reverse phase HPLC and subjected to mass spectrometry (data not shown). […] The conversion occurred between 3 and 6 hours. To evaluate, the efficacy of compound 1771, we used a mouse model of staphylococcal sepsis. Animals received intraperitoneal injections with 32 mg/kg of compound in 12-hour intervals. Treatment was initiated 24 hours prior to challenge and terminated at 72 hours post infection.
To examine the therapeutic value of compound 1771, we evaluated its half-life in mice. Animals received a single intraperitoneal injection of 32 mg/kg compound 1771. The blood of three animals was drawn 1, 6 and 12 hours following 1771 injection and serum samples were extracted with methanol and chloroform, separated by reversed-phase HPLC and subjected to mass spectrometry. […] Full conversion of compound 1771 into its two cleavage fragments occurred between 3 and 6 hours following injection. […]

[16] = tested on: B. cereus G9142; format: cell-based
[17] = tested on: E. faecium TX0016; format: cell-based; remark: listed apart in the source
[18] = tested on: B. anthracis Sterne; format: cell-based
[19] = tested on: C. difficile UK1; assay: Growth inhibition assay (MIC/IC50), 96-well; format: cell-based
[20] = tested on: B. anthracis Sterne; format: cell-based; conditions: 5 μM compound, liquid culture
[21] = tested on: C. difficile R20291; assay: Growth inhibition assay (MIC/IC50), 96-well; format: cell-based
[22] = tested on: E. faecalis - VRE V583; assay: microbe, parasite or virus in culture; format: cell-based; conditions: 37° C., 18-22 hours, OD600
[23] = tested on: S. aureus - MRSA USA300; assay: microbe, parasite or virus in culture; format: cell-based; conditions: 37° C., 18-22 hours, OD600
[24] = tested on: E. faecalis V583; format: cell-based; remark: listed apart in the source
[25] = tested on: B. anthracis Ames; format: cell-based; conditions: 37° C., 18-22 hours, OD600
[26] = biological target: eLtaS (Staphylococcus aureus, UniProt Q2G093); assay: eLtaS-mediated cleavage of NBD-PGC6 to NBD-DAGC6; format: biochemical, S. aureus; conditions: 100 μM compound, 6 hours, 37° C.
Sequence of eLtaS (Q2G093 218-646): as the sequence (Q2G093 218-646) above
Description: FIG. 10. Compound 1771 inhibits eLtaS binding to and cleavage of phosphatidylglycerol (PG) in vitro. Using NBD-PGC6 with 6 carbon acyl chains cleavage of 2 nmol substrate by 2 nmol eLtaS was detectable after 6 hours incubation at 37° C. Chloroform extraction separated non-hydrolyzed NBD-PGC6 (aqueous phase—AP) from the hydrophobic reaction product nitro-benzoxadiazole diacylglycerol (NBD-DAGC6), which segregated into the organic phase (OP). Both phases were analyzed by normal-phase HPLC on a diol column (solid line). Elution profiles were monitored by fluorescence (excitation at 460 nm, emission at 534 nm). Identity of peak fractions was confirmed by mass spectrometry. Addition of 100 μM compound 1771 blocked NBD-DAGC6 production by eLtaS (dashed line).
We used size exclusion HPLC with BioBasic SEC300 column equilibrated with 20 nmol nitro-benzoxadiazole glycerol-phosphate (NBD-GP) to measure binding of enzyme to substrate. Chromatography of 2 nmol eLtaS on BioBasic SEC300 column led to the elution of enzyme.NBD-GP complex and absorbance at 460 nm (FIG. 5). […]

[27] = tested on: B. anthracis LtaS2BA expressed in E. coli; format: cell-based; conditions: 200 μM compound
[28] = tested on: C. perfringens SM101; format: cell-based; conditions: nitrogen atmosphere, 37° C., 18-22 hours
[29] = tested on: S. aureus RN4220; format: cell-based; remark: listed apart in the source

O=C(COC(=O)Cc1coc2ccc3ccccc3c12)Nc1nnc(-c2ccccc2)o1 [Compound 1771, 2-oxo-2-[(5-phenyl-1,3,4-oxadiazol-2-yl)amino]ethylnaphtho[2,1-b]furan-1-ylacetate]
reduced growth of staphylococci ([1]; 2 μM compound): 50%
reduced growth of staphylococci ([1]; 5 μM compound): 75%
MIC [2]: 12.5 µM (≈ 5.34 µg/mL)
IC50 ([2]; sigmoidal fit, read-out: IC50): 7.7 µM and 6.53 µM
growth of E. coli [3]: not affected; also recorded: did not affect the growth
Cell envelope diameter [4]: 32.4 (±0.5) nm
Cell envelope diameter Δ (1771 vs mock) [4]: 9.6 (±0.6) nm
Co-elution of phosphatidylglycerol with eLtaS, reduction [5]: more than 95%
elution of NBD-PG.eLtaS complex [5]: abolished
MIC [6]: 12.5 µM (≈ 5.34 µg/mL)
IC50 ([6]; sigmoidal fit, read-out: IC50): 7.48 µM and 7.3 µM
IC50 ([7]; Isolate 1): 8.7 µM
MIC ([7]; Isolate 1): 18.8 µM (≈ 8.04 µg/mL)
IC50 ([7]; Isolate 2): 9.2 µM
MIC ([7]; Isolate 2): 18.8 µM (≈ 8.04 µg/mL)
IC50 ([7]; Isolate 3): 12.2 µM
MIC ([7]; Isolate 3): 18.8 µM (≈ 8.04 µg/mL)
Cell envelope diameter [8]: 31.6 (±0.6) nm
Cell envelope diameter Δ (1771 vs mock) [8]: 7.8 (±0.7) nm
MIC [9]: 6.5 µM (≈ 2.78 µg/mL)
IC50 ([9]; sigmoidal fit): 4.3 µM
LtaS immunoreactive signals ([10]; 5 μM compound): slightly unstable; also recorded: reduced
abundance of sortase A (SrtA), control ([10]; 2 or 5 μM compound): remained unaffected; also recorded: not affected
LTA production (immunoblot α-LTA) ([10]; sub-lethal concentrations of compound): affect the production of LTA; also recorded: reduced the abundance of LTA
Cell clusters/all cocci [11]: 3/387
production of LTA promoted by plasmid encoded LtaSSA [12]: abrogated
IC50 [13]: 8.2 µM
MIC [14]: 50.0 µM (≈ 21.4 µg/mL)
IC50 ([14]; sigmoidal fit, read-out: IC50): 23.3 µM
stability in mice [15]: unstable in mice with rapid loss of activity
IC50 [16]: 10.7 µM
MIC [16]: 25.0 µM (≈ 10.7 µg/mL)
Cell clusters/all cocci [17]: 1/295
Cell envelope diameter Δ (1771 vs mock) ([18]; 8 μM compound): 6.3 (±1.0) nm
Cell envelope diameter ([18]; BHI agar with 8 μM compound, mean of 124 (SEM)): 46.8 (±0.7) nm
MIC [19]: 6.2 µM (≈ 2.65 µg/mL)
IC50 ([19]; sigmoidal fit): 3.3 µM
chain length of vegetative bacilli [20]: increased chain length; also recorded: formed longer chains
MIC [21]: 6.2 µM (≈ 2.65 µg/mL)
IC50 ([21]; sigmoidal fit): 5.3 µM
MIC [22]: 50.0 µM (≈ 21.4 µg/mL)
IC50 ([22]; sigmoidal fit, read-out: IC50): 27.3 µM
MIC [23]: 50.0 µM (≈ 21.4 µg/mL)
IC50 ([23]; sigmoidal fit, read-out: IC50): 14 µM
Cell clusters/all cocci [24]: 2/496
MIC [25]: 12.5 µM (≈ 5.34 µg/mL)
IC50 ([25]; sigmoidal fit): 7.6 µM
NBD-DAGC6 production by eLtaS [26]: blocked; also recorded: inhibited
LTA production by LtaS2BA [27]: completely abolished; also recorded: abrogated
MIC [28]: 6.2 µM (≈ 2.65 µg/mL)
IC50 ([28]; sigmoidal fit): 2.5 µM
Cell envelope diameter [29]: 38.8 (±0.9) nm
Cell envelope diameter Δ (1771 vs mock) [29]: 7.5 (±1.1) nm
